Key:
Details in all cases: 72 h
Caco-2 [1] = assay: cell viability relative to DMSO; higher = less toxic
HepG2 [2] = assay: as above
Vero E6 [3] = assay: as above
U2OS [4] = assay: as above
Caco-2 [5] = assay: relative viability EC50 (midpoint between 100% and the lowest measured viability); higher = less toxic
HepG2 [6] = assay: as above
Vero E6 [7] = assay: as above
U2OS [8] = assay: as above
Caco-2 [9] = assay: drug sensitivity score (DSS) for viability; higher = more toxic; extreme values may be limits of the assay
HepG2 [10] = assay: as above
Vero E6 [11] = assay: as above
U2OS [12] = assay: as above
Calu-3 [13] = assay: cell viability relative to DMSO; higher = less toxic
Calu-3 [14] = assay: relative viability EC50 (midpoint between 100% and the lowest measured viability); higher = less toxic
Calu-3 [15] = assay: drug sensitivity score (DSS) for viability; higher = more toxic; extreme values may be limits of the assay

| Compound | cell viability (Caco-2 [1]; 1 nM) [%] | cell viability (Caco-2 [1]; 10 nM) [%] | cell viability (Caco-2 [1]; 100 nM) [%] | cell viability (Caco-2 [1]; 1000 nM) [%] | cell viability (Caco-2 [1]; 10000 nM) [%] | cell viability (HepG2 [2]; 1 nM) [%] | cell viability (HepG2 [2]; 10 nM) [%] | cell viability (HepG2 [2]; 100 nM) [%] | cell viability (HepG2 [2]; 1000 nM) [%] | cell viability (HepG2 [2]; 10000 nM) [%] | cell viability (Vero E6 [3]; 1 nM) [%] | cell viability (Vero E6 [3]; 10 nM) [%] | cell viability (Vero E6 [3]; 100 nM) [%] | cell viability (Vero E6 [3]; 1000 nM) [%] | cell viability (Vero E6 [3]; 10000 nM) [%] | cell viability (U2OS [4]; 1 nM) [%] | cell viability (U2OS [4]; 10 nM) [%] | cell viability (U2OS [4]; 100 nM) [%] | cell viability (U2OS [4]; 1000 nM) [%] | cell viability (U2OS [4]; 10000 nM) [%] | relative viability EC50 (Caco-2 [5]) [µM] | relative viability EC50 (HepG2 [6]) [µM] | relative viability EC50 (Vero E6 [7]) [µM] | relative viability EC50 (U2OS [8]) [µM] | drug sensitivity score (Caco-2 [9]) | drug sensitivity score (HepG2 [10]) | drug sensitivity score (Vero E6 [11]) | drug sensitivity score (U2OS [12]) | cell viability (Calu-3 [13]; 1 nM) [%] | cell viability (Calu-3 [13]; 10 nM) [%] | cell viability (Calu-3 [13]; 100 nM) [%] | cell viability (Calu-3 [13]; 1000 nM) [%] | cell viability (Calu-3 [13]; 10000 nM) [%] | relative viability EC50 (Calu-3 [14]) [µM] | drug sensitivity score (Calu-3 [15]) |
| --- | --- | --- | --- | --- | --- | --- | --- | --- | --- | --- | --- | --- | --- | --- | --- | --- | --- | --- | --- | --- | --- | --- | --- | --- | --- | --- | --- | --- | --- | --- | --- | --- | --- | --- | --- |
| CC(=O)Nc1ccc(S(=O)(=O)c2ccc(NC(C)=O)cc2)cc1 [acedapsone] | 119 | 115 | 96.2 | 108 | 92.9 | 105 | 97.3 | 86.3 | 107 | 102 | 106 | 101 | 105 | 99.5 | 98.8 | 104 | 108 | 102 | 104 | 97.4 | > 10 | > 10 | > 10 | > 10 | 0 | 0 | 0 | 0 |  |  |  |  |  |  |  |
| NS(=O)(=O)c1cc2c(cc1C(F)(F)F)NC(Cc1ccccc1)NS2(=O)=O (stereo unspecified) [bendroflumethiazide] | 96.6 | 101 | 96.9 | 99.1 | 108 | 106 | 87.1 | 98.7 | 93.3 | 98.6 | 92.4 | 94.9 | 91.7 | 92.4 | 109 |  |  |  |  |  | > 10 | > 10 | > 10 |  | 0 | 0 | 0 |  | 109 | 110 | 107 | 98.2 | 95.1 | > 10 | 0 |
| CC(C)[C@H]1C(=O)N[C@@H](CCCNC(=N)N)C(=O)NCC(=O)N[C@@H](CC(=O)O)C(=O)N[C@H](Cc2ccccc2)C(=O)N1C [cilengitide] | 98.6 | 95.4 | 96.5 | 80.5 | 41.1 | 103 | 103 | 92.6 | 116 | 103 | 98.1 | 101 | 98.8 | 79.8 | 17 |  |  |  |  |  | 1.39 | > 10 | 1.57 |  | 5.8 | 0 | 7.7 |  | 97.6 | 94.3 | 87.1 | 89.4 | 70.5 |  | 2.8 |
| Cc1cn([C@H]2O[C@@H](CO)[C@H](O)[C@H]2F)c(=O)[nH]c1=O [clevudine] | 102 | 105 | 94.4 | 108 | 87.5 | 105 | 92.7 | 104 | 95.2 | 97.1 |  |  |  |  |  | 92.4 | 102 | 101 | 98.2 | 97.2 | > 10 | > 10 |  | > 10 | 0 | 0 |  | 0 | 90.3 | 106 | 106 | 97.9 | 99.3 | > 10 | 0 |

Source: the supplement of paper PMC13380429
